Measured values reported in article PMC12892976, “Alkylation-based optimization of antifungal FPPS inhibitors yields a potent, broad-spectrum lipophilic zoledronate derivative” (mBio, 2025).

What was measured:
[1] = test system: Epidermophyton floccosum; assay: MIC broth microdilution (CLSI); type: cell-based; conditions: Epidermophyon floccosum R-113
Description: (§2) Antifungal susceptibility was determined by broth microdilution according to the CLSI guidelines described in M27-Ed4 ([16]).

[2] = test system: Mucor circinelloides; assay: checkerboard drug interaction (FICI, MICc); type: cell-based;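 also: simplified diagonal checkerboard screen pairing antifungals with FPPS inhibitors, FICI calculated under the Loewe additivity model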
Description: (§3) Drug interactions between antifungals and FPPS inhibitors were investigated using a simplified checkerboard diagonal screening method ([45]). […] FICIs were determined according to the Loewe additivity model ([17]).

[3] = test system: Trichophyton rubrum biofilms; assay: biofilm XTT reduction assay (SIC80, SFICI); type: cell-based; conditions: for SICc / SFICI: Trichophyton rubrum
Description: (§4) Biofilms of Cryptococcus were seeded in DMEM, and all other species were seeded in RPMI-1640.

[4] = test system: Candida albicans biofilms; assay: biofilm XTT reduction assay (SIC80, SFICI); conditions: for SICc / SFICI: Candida albicans
Description: as §4

[5] = test system: Trichophyton soudanense; assay: MIC broth microdilution (CLSI); conditions: Trichophyton soudanense R-167
Description: as §2

[6] = test system: Aspergillus terreus; assay: checkerboard drug interaction (FICI, MICc); type: cell-based;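 also: simplified diagonal checkerboard screen pairing antifungals with FPPS inhibitors, FICI derived by the Loewe additivity model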
Description: as §3

[7] = test system: Aspergillus frankstonensis; assay: MIC broth microdilution (CLSI); type: cell-based; conditions: Aspergillus frankstonensis DTO 341-F3
Description: as §2

[8] = test system: Candida glabrata biofilms; assay: biofilm XTT reduction assay (SIC80, SFICI); type: cell-based; conditions: for SICc / SFICI: Candida glabrata
Description: (§1) […]. […] […].

[9] = test system: Aspergillus flavus biofilms; assay: biofilm XTT reduction assay (SIC80, SFICI); type: cell-based; conditions: for SICc / SFICI: Aspergillus flavus
Description: as §1

[10] = test system: Aspergillus fumigatus biofilms; assay: biofilm XTT reduction assay (SIC80, SFICI); type: cell-based; conditions: for SICc / SFICI: Aspergillus fumigatus
Description: as §1

[11] = test system: Aspergillus felis; assay: checkerboard drug interaction (FICI, MICc); type: cell-based;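 also: simplified diagonal checkerboard screen pairing antifungals with FPPS inhibitors, FICI calculated under the Loewe additivity model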
Description: as §3

[12] = test system: Cryptococcus bacillisporus; assay: MIC broth microdilution (CLSI); type: cell-based; conditions: Cryptococcus bacillisporus NIH179
Description: as §2

[13] = test system: Saccharomyces cerevisiae biofilms; assay: biofilm XTT reduction assay (SIC80, SFICI); type: cell-based; conditions: for SICc / SFICI: Saccharomyces cerevisiae
Description: as §4

[14] = test system: Cryptococcus neoformans biofilms; assay: biofilm XTT reduction assay (SIC80, SFICI); conditions: for SICc / SFICI: Cryptococcus neoformans
Description: as §4

[15] = test system: Trichophyton tonsurans; assay: MIC broth microdilution (CLSI); conditions: Trichophyton tonsurans R-168
Description: as §2

[16] = test system: Nannizzia nana; assay: checkerboard drug interaction (FICI, MICc); type: cell-based;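 also: simplified diagonal checkerboard screen pairing antifungals with FPPS inhibitors, FICI calculated under the Loewe additivity model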
Description: as §3

CCCCCCCCCCn1cc[n+](CC(O)(P(=O)(O)O)P(=O)(O)O)c1 [10-ZOL, Decyl-zoledronate]
1 mg/L: MIC / MEC [7] | MIC / MEC [15]
0.25: bisphosphonate MICc ([6]; with 5FC) | bisphosphonate MICc ([6]; with FLC) | bisphosphonate MICc ([6]; with ITR) | bisphosphonate MICc ([6]; with KET) | bisphosphonate MICc ([6]; with VOR) | bisphosphonate MICc ([11]; with KET) | bisphosphonate MICc ([16]; with AMB) | bisphosphonate MICc ([16]; with CAS)
0.38–0.50: FICI range (biofilm) ([3]; azoles with 10-ZOL, Trichophyton rubrum biofilms)
4 µg/mL: SICc ([8]; FLC:10-ZOL combination) | SICc ([8]; ITR:10-ZOL combination)
4: bisphosphonate MICc ([11]; with CAS)
≥4: FICI ([2]; 5FC:10-ZOL) | FICI ([2]; CAS:10-ZOL) | FICI ([11]; CAS:10-ZOL)
0.53: FICI ([6]; FLC:10-ZOL)
0.52: FICI ([11]; FLC:10-ZOL)
2.17: FICI ([16]; CAS:10-ZOL)
64 µg/mL: SIC80 ([3]; biofilm, agent alone, Trichophyton rubrum 213) | SICc ([4]; ITR:10-ZOL combination) | SICc ([4]; KET:10-ZOL combination) | SICc ([9]; ITR:10-ZOL combination) | SICc ([10]; FLC:10-ZOL combination) | SIC80 ([13]; agent alone, Saccharomyces cerevisiae S288c)
0.38: SFICI ([3]; biofilm, FLC:10-ZOL) | SFICI ([3]; biofilm, ITR:10-ZOL) | SFICI ([10]; KET:10-ZOL)
2 µg/mL: SICc ([8]; KET:10-ZOL combination)
1.00: SFICI ([4]; ITR:10-ZOL) | SFICI ([4]; KET:10-ZOL) | SFICI ([8]; ITR:10-ZOL) | SFICI ([9]; ITR:10-ZOL) | SFICI ([13]; ITR:10-ZOL)
3: FICI ([6]; CAS:10-ZOL)
16 µg/mL: SICc ([3]; biofilm, FLC:10-ZOL combination) | SICc ([3]; biofilm, ITR:10-ZOL combination) | SICc ([3]; biofilm, KET:10-ZOL combination) | SICc ([9]; FLC:10-ZOL combination) | SICc ([10]; KET:10-ZOL combination) | SICc ([14]; ITR:10-ZOL combination)
1.5: FICI ([2]; ITR:10-ZOL) | FICI ([6]; 5FC:10-ZOL) | FICI ([6]; KET:10-ZOL) | FICI ([6]; VOR:10-ZOL) | FICI ([16]; FLC:10-ZOL)
0.63: SFICI ([8]; FLC:10-ZOL) | SFICI ([9]; FLC:10-ZOL) | SFICI ([10]; FLC:10-ZOL) | SFICI ([13]; KET:10-ZOL) | SFICI ([14]; ITR:10-ZOL)
0.125: bisphosphonate MICc ([2]; with KET) | bisphosphonate MICc ([2]; with VOR)
0.50: SFICI ([3]; biofilm, KET:10-ZOL) | SFICI ([4]; FLC:10-ZOL) | SFICI ([8]; KET:10-ZOL)
0.75: SFICI ([9]; KET:10-ZOL) | SFICI ([10]; ITR:10-ZOL) | SFICI ([13]; FLC:10-ZOL) | SFICI ([14]; FLC:10-ZOL)
2: FICI ([2]; AMB:10-ZOL) | FICI ([16]; 5FC:10-ZOL) | FICI ([16]; ITR:10-ZOL)
32 µg/mL: SICc ([4]; FLC:10-ZOL combination) | SICc ([9]; KET:10-ZOL combination) | SICc ([10]; ITR:10-ZOL combination) | SICc ([13]; FLC:10-ZOL combination) | SICc ([13]; ITR:10-ZOL combination) | SICc ([14]; FLC:10-ZOL combination)
1: bisphosphonate MICc ([2]; with 5FC) | bisphosphonate MICc ([2]; with AMB) | bisphosphonate MICc ([2]; with FLC) | bisphosphonate MICc ([2]; with ITR) | FICI ([6]; ITR:10-ZOL) | bisphosphonate MICc ([6]; with CAS) | FICI ([11]; AMB:10-ZOL) | bisphosphonate MICc ([11]; with 5FC) | bisphosphonate MICc ([11]; with AMB) | bisphosphonate MICc ([11]; with FLC) | bisphosphonate MICc ([11]; with ITR) | bisphosphonate MICc ([11]; with VOR) | bisphosphonate MICc ([16]; with 5FC)
0.56: SFICI ([14]; KET:10-ZOL)
2 mg/L: MIC / MEC [5] | MIC / MEC [12]
0.5: bisphosphonate MICc ([2]; with CAS) | bisphosphonate MICc ([6]; with AMB)
8 µg/mL: SIC80 ([8]; agent alone, Candida glabrata CBS138) | SICc ([13]; KET:10-ZOL combination) | SICc ([14]; KET:10-ZOL combination)
1.17: FICI ([16]; VOR:10-ZOL)
2.25: FICI ([16]; AMB:10-ZOL)
0.5 mg/L: MIC / MEC [1]
128 µg/mL: SIC80 ([4]; agent alone, Candida albicans SC5314) | SIC80 ([9]; agent alone, Aspergillus flavus ATCC 204304) | SIC80 ([10]; agent alone, Aspergillus fumigatus ATCC 204305) | SIC80 ([14]; agent alone, Cryptococcus neoformans H99)
